According to patent US8492384B2 (Korea Institute of Science and Technology, priority 2008, dated 2013):

Experiments:
Type in all cases: cell-based
[1] = biological target: T1, α1G T-type calcium channels (Homo sapiens, UniProt O43497); assay: T-type calcium channel activity using the FDSS6000 (HTS, Fluo-3/AM, KCl-induced intracellular calcium change); conditions: percent inhibition at 10 μM, HEK293 cells stably expressing α1G T-type calcium channels and Kir2.1, KCl 75 mM activation; for inhibition at 10 µM: read-out: FDSS (%, 10 μM)
T1 construct: host or cells: HEK293
T1 sequence (O43497 whole entry): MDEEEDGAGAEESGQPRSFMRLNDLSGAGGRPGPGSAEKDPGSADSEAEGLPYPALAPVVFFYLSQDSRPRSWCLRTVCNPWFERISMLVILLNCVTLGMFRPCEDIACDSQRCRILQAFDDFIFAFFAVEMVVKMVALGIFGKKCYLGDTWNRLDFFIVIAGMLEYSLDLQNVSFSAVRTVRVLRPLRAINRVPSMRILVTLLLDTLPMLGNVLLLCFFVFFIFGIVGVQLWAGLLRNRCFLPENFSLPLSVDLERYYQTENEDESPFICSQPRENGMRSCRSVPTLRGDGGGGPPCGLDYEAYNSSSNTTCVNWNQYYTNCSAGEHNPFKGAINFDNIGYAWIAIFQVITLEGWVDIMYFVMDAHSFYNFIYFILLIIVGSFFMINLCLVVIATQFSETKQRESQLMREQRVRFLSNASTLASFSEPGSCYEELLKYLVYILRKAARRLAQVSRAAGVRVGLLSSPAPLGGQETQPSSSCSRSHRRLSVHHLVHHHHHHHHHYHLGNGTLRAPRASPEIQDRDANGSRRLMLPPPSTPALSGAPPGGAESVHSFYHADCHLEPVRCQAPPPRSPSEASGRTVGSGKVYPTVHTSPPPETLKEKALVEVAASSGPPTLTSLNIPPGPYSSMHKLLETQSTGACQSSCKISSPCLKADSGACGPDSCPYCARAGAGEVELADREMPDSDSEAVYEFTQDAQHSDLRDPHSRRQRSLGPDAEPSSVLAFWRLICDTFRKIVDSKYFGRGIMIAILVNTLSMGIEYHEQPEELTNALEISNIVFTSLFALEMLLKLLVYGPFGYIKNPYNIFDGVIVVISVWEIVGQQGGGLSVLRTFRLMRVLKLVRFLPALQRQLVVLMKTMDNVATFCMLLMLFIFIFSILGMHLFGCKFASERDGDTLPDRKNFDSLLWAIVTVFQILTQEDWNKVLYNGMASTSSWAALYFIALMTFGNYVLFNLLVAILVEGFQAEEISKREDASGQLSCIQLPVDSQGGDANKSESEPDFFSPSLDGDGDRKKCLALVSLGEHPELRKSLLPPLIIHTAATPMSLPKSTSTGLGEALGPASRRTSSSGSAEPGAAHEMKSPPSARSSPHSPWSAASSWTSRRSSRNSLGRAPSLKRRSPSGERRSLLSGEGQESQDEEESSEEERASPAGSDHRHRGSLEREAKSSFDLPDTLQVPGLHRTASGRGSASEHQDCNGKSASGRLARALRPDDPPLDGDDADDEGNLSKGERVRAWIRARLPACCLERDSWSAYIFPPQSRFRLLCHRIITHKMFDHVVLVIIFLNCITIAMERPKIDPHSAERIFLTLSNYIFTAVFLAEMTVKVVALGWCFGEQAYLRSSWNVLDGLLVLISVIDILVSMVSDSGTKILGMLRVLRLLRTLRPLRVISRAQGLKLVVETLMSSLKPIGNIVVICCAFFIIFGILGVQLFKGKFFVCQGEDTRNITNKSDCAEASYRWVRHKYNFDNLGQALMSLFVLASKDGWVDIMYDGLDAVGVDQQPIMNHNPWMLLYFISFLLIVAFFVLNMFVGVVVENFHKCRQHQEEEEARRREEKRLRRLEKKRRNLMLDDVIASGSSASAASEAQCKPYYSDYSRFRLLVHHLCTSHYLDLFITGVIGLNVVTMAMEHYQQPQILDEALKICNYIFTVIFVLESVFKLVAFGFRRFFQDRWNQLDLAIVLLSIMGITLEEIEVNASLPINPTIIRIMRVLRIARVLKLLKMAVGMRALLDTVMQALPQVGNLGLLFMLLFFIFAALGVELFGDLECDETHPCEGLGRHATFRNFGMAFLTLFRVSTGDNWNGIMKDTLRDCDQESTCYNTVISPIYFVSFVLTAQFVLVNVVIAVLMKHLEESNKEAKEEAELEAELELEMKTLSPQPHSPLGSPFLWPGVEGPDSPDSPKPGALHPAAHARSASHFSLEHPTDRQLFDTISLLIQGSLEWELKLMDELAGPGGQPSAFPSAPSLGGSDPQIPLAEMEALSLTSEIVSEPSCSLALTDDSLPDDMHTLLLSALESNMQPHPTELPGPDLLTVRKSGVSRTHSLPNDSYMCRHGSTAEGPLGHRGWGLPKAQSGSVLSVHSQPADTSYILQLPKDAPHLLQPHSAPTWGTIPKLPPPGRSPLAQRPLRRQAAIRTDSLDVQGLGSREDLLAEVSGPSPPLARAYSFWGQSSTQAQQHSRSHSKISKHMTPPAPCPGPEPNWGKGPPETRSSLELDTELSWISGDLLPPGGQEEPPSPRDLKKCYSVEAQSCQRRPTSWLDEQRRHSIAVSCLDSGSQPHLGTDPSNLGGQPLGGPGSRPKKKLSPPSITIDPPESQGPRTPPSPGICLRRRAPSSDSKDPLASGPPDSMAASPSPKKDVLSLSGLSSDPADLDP
Protocol: (§1) The novel compounds of the present invention presented as the formula 1 were tested for their antagonistic activities against T-type calcium channels using the methods described below. More specifically, the synthesized compounds were screened as follows: First, as a primary screening, the compounds having 40% or higher of antagonistic activities against T-type calcium channels were selected using the FDSS6000, a high throughput screening (HTS) device. Then, as a secondary screening, the IC50 (effective inhibitory concentration) values were obtained using the electrophysiological methods.
1) Methods for the Measurements of T-Type Calcium Channel Activity Using the FDSS6000
12 to 24 hours prior to the FDSS-based HTS assay, HEK293 cells stably expressing both α1G T-type calcium channels and Kir2.1 channels (α1G cell line: KCTC 10519BP, KRIBB (Korea Research Institute of Bioscience and Biotechnology) (GENE BANK) were seeded onto the 96-well plate coated with poly-L-lysine (0.05 mg/mL) at a density of 4×10^4 cells/well using a cell distributor (Titertek, USA). On the following day, the cells attached onto the 96-well plate were washed three times with a HEPES-buffered solution (150 mM NaCl, 5 mM KCl, 1 mM MgCl2, 2 mM CaCl2, 10 mM HEPES, 10 mM glucose, and pH 7.4) using an automatic 96-well plate washer (BioTek, USA), and then labeled with a fluorescent calcium indicator dye, Fluo-3/AM (5 μM) and 0.001% Pluronic F-127 in a HEPES-buffered solution at room temperature for 1 hour and then washed again with a HEPES-buffered solution twice. 10 minutes prior to the FDSS6000 measurements, the cells was washed with a HEPES-buffered solution containing 10 mM CaCl2 once and the final volume was adjusted.
In addition to the 96-well plates with cells, the two drug plates were prepared: one containing KCl (final concentration of 75 mM) for the activation of T-type calcium channels, and the other containing testing compounds (blocking agents of T-type calcium channels). Since most cell-based HTS devices are provided with a liquid application system for drug injection but not with a liquid absorption system, the KCl solution and the blocking agents for screening were prepared at concentrations five times higher than the final concentrations in the 10 mM CaCl2 HEPES-buffered solution, and then diluted in the cell plate, and the activities were measured. The specific method of the FDSS6000 measurements is as follows: For the FDSS6000 measurements, after the 20-sec baseline recordings, cells were preincubated with drugs for 75 seconds and the change in intracellular calcium concentration induced by KCl was measured. The percent inhibition by a test compound was calculated as integrated values of 340/380 fluorescent ratio of untreated and drug-treated cells. The control drug was 10 μM of Mibefradil®.
In details, cells were selectively exposed to 340 nm and 380 nm light excited by 4 xenon lamps installed in FDSS6000 using a computer-controlled filter wheel. The emitter fluorescence light through a 515 nm long-pass filter was passed by a freezing digital CCD camera mounted on the device. Data were collected every 1.23 seconds, and an average value of 340/380 fluorescent ratio for each well was obtained using a digital fluorescent analyzer. Data acquisition and analysis were performed using a program provided by Hamamatsu Photonics.

[2] = biological target: T1, α1G T-type calcium channels; assay: T-type calcium channel activity using electrophysiological whole-cell patch-clamp technique; conditions: percent inhibition of inward peak currents, HEK293 cells expressing α1G, head prints 100 μM
[3] = biological target: T1, α1G T-type calcium channels; assay: as above; conditions: HEK293 cells expressing α1G T-type calcium channels
Protocol: as §1
2) Methods for the Measurements of T-Type Calcium Channel Activity Using an Electrophysiological Whole-Cell Patch-Clamp Technique
HEK293 cells stably expressing T-type calcium channels were cultured in DMEM (Dulbecco's modified Eagle's medium) containing 10% (v/v) fetal bovine serum and 1% penicillin/streptomycin (v/v) in humidified 5% CO2 at 36.5° C. Cells expressing α1GT-type calcium channels were selected using G-418 (0.5 mg/mL) in the culture medium. The culture medium was replaced with a fresh one every 3-4 days, and cells were subcultured every week.
Cells were seeded onto the coverglass coated with poly-L-lysine (0.5 mg/mL) for the measurements of T-type calcium channel activity 2-7 days prior to the recordings. Whole-cell recordings of T-type calcium channel currents were performed using an EPC-9 patch clamp amplifier (HEKA, Germany). Whole-cell currents were recorded using micropipettes with resistance of 3-4 MΩ with the pipette (intracellular) solution containing (in mM): 130 KCl, 11 EGTA, 5 Mg-ATP, and 10 HEPES, pH to 7.4 and with the bath (extracellular) solution containing (in mM): 140 NaCl, 2 CaCl2, and 10 HEPES, pH to 7.4. The inward currents of T-type calcium channels were evoked by the test pulses of −30 mV for 50 ms at a holding potential of −100 mV every 10 seconds.
Each compound was dissolved in dimethylsulfoxide (DMSO) as 10 mM stock solutions and diluted in the bath solution to 10 μM (containing 0.1% DMSO). […] More specifically, each compound was perfused to the bath for about 30-60 seconds, and the inhibition of the inward peak currents by a test compound was calculated as a percent inhibition from which the IC50 values were determined.

1-N-[4-(4-chlorophenyl)(phenyl)methylpiperazin-1-yl]carbonylethyl-4-methylimidazole [Compound No. 45]
FDSS (%, 10 μM) [1]: 47.90%
HEK293 (%, 100 μM) [2]: 64.7 ± 2.2%
IC50 [3]: 5.46 ± 0.57 µM

1-N-{2-[4-(4-chlorophenyl) (phenyl)methylpiperazin-1-yl]ethyl}carbamoylethyl-2-phenylimidazole [Compound No. 63]
FDSS (%, 10 μM) [1]: 58.64%
HEK293 (%, 100 μM) [2]: 89.1 ± 1.3%
IC50 [3]: 2.11 ± 0.11 µM

1-N-{2-[4-(4-chlorophenyl) (phenyl)methylpiperazin-1-yl]ethyl}carbamoylethyl-4-phenylimidazole [Compound No. 64]
FDSS (%, 10 μM) [1]: 60.48%
HEK293 (%, 100 μM) [2]: 95.8 ± 0.7%
IC50 [3]: 1.39 ± 0.07 µM

Cc1cccc(N2CCN(C(=O)CCn3cnc(-c4ccccc4)c3)CC2)c1C [Compound No. 3, 1-N-[4-(2,3-dimethylphenyl)piperazin-1-yl]carbonylethyl-4-phenylimidazole]
inhibition at 10 µM [1]: 55.5%
inhibition at 100 µM [2]: 64.7 ± 2.2%
IC50 [3]: 4.89 ± 0.44 µM

O=C(CCn1cnc(-c2ccccc2)c1)N1CCN(Cc2ccc(Cl)cc2)CC1 [Compound No. 5, 1-N-[4-(4-chlorobenzyl)piperazin-1-yl]carbonylethyl-4-phenylimidazole]
inhibition at 10 µM [1]: 64.7%
inhibition at 100 µM [2]: 86.5 ± 1.8%
IC50 [3]: 3 ± 0.26 µM

O=C(CCn1ccnc1-c1ccccc1)N1CCN(C(c2ccccc2)c2ccccc2)CC1 [Compound No. 13, 1-N-(4-diphenylmethylpiperazin-1-yl)carbonylethyl-2-phenylimidazole]
inhibition at 10 µM [1]: 54.7%
inhibition at 100 µM [2]: 71.1 ± 3.3%
IC50 [3]: 3.67 ± 0.23 µM

O=C(CCn1ccnc1-c1ccccc1)N1CCN(Cc2ccc(Cl)c(Cl)c2)CC1 [Compound No. 18, 1-N-[4-(3,4-dichlorobenzyl)piperazin-1-yl]carbonylethyl-2-phenylimidazole]
inhibition at 10 µM [1]: 39.3%
inhibition at 100 µM [2]: 50 ± 0.6%
IC50 [3]: 9.36 ± 0.65 µM

O=C(CCn1cnc(-c2ccccc2)c1)N1CCN(c2ccccc2F)CC1 [Compound No. 20, 1-N-[4-(2-fluorophenyl)piperazin-1-yl]carbonylethyl-4-phenylimidazole]
inhibition at 10 µM [1]: 45.2%
inhibition at 100 µM [2]: 22.9 ± 1.4%
IC50 [3]: 22.3 ± 1.46 µM

O=C(CCn1cnc(-c2ccccc2)c1)N1CCN(c2cccc(Cl)c2)CC1 [Compound No. 25, 1-N-[4-(3-chlorophenyl)piperazin-1-yl]carbonylethyl-4-phenylimidazole]
inhibition at 10 µM [1]: 63.7%
inhibition at 100 µM [2]: 74.3 ± 1.3%
IC50 [3]: 4.35 ± 0.14 µM

O=C(CCn1cnc(-c2ccccc2)c1)NCCN1CCN(C(c2ccccc2)c2ccccc2)CC1 [Compound No. 55, 1-N-[2-(4-diphenylmethylpiperazin-1-yl)ethyl]carbamoylethyl-4-phenylimidazole]
inhibition at 10 µM [1]: 49.6%
inhibition at 100 µM [2]: 51.9 ± 0.1%
IC50 [3]: 8.66 ± 0.12 µM

O=C(CCn1ccnc1-c1ccccc1)NCCN1CCN(c2ccc(F)cc2)CC1 [Compound No. 74, 1-N-{2-[4-(4-fluorophenyl)piperazin-1-yl]ethyl}carbamoylethyl-2-phenylimidazole]
inhibition at 10 µM [1]: 49.8%
inhibition at 100 µM [2]: 37.6 ± 0.5%
IC50 [3]: 14.5 ± 0.68 µM
